Results published in patent publication US9150523B2, “Piperazine derivatives, methods for preparing same, and uses thereof in the treatment of insulin resistance” (METABOLYS, priority 2011, dated 2015).

Test system: db/db mouse
Assay: Antidiabetic activity in db/db mouse (drop in glycaemia after oral administration)
Format: in vivo
Conditions: 8 weeks old, 200 mg/kg per os
Method: The antidiabetic activity of the compound of formula (I) orally on a type 2 diabetes animal model, the db/db mouse, was tested. Diabetic mice are used at the age of 8 weeks; they then have very high hyperglycaemia. The animals are stabilised at a minimum for one week after reception and up to the day of experimentation in an animal house at a temperature regulated at 21°-22° C. and subjected to a fixed cycle of light (from 7 a.m. to 7 p.m.) and darkness (from 7 p.m. to 7 a.m.). Their food consisted of a maintenance regime; water and food were supplied “ad libitum”. The mice are treated orally with the product to be tested (200 mg/kg per os) in suspension in a mixture of water and methyl cellulose or the vehicle (mixture of water and methyl cellulose) in the morning of the day of the experimentation. Just before the administration of the product and one and two hours after the administration of the product, a blood sample (one drop of blood) is taken following a small incision in the tail for determining glycaemia. This glycaemia is measured by means of a glucometer (Lifescan OneTouch Ultra, LifeScan, Johnson-Johnson Company) and OneTouch Ultra glycaemia measurement strips.

## COc1ccccc1N1CCN(CCOc2ccc(CCCCC(=O)O)cc2)CC1.Cl [Compound 1]
1 hour after administration
  Drop in glycaemia (in % of the initial value) After 1 hour: 34%
2 hours after administration
  Drop in glycaemia (in % of the initial value) After 2 hours: 44%
